Assay results published in patent US5026836A, “6-sulfenamide, 6-sulfinamide and 6-sulfonamide purines, purine nucleosides, purine nucleotides, pharmaceutical compositions, and processes of making” (priority 1988, dated 1991).
Entries after “also recorded” stand apart in the source; their conditions may differ. Where two headings read alike, the source gives them in different places.

What was measured:
[1] = Solubility (maximum solubility); format: physicochemical
[2] = Toxicity / maximum tolerated dosage in mice; format: in vivo; conditions: mouse, in vivo, single QD day 1 ip, L1210-inoculated BDF1 mice, read-out: Max. tolerated dosage
Experimental: In Example N other compounds of the invention were tested against L1210 cells. […] Activity in Table 14-a is tabulated as both increases in life span and as cells surviving treatment and that in table 14-b as T/C.

L1210 cells [3] = experiment: Life span of BDF1 mice inoculated ip with 10^6 L1210 leukemia cells; format: in vivo, mouse
Experimental: As illustrative examples of use of the compounds of the invention the following examples are given. […] These standard tests utilize protocols developed under the auspices of the Developmental Therapeutics Program, Division of Cancer Treatment, National Cancer Institute, Bethesda, Md., U.S.A. Except as otherwise indicated the tests conform to these protocols and are evaluated utilizing criteria defined by the protocols.
(§1) Values below 25% are considered capable of producing effective therapy, those below 10% are considered good and those below 5% are considered very good. This expresses the percent of the cells which survived treatment based upon the original cells in the inoculum. Those tests expressed as increases in life span (% ILS) indicate the increased life span of the drug treated group compared to a control group.
(§2) As an indicator of reproducible activity, compounds of the invention and other known cancer chemotherapeutic agents were screened against L1210 lymphoid leukemia in vivo utilizing the mouse as a test species. Normal NCI protocols for this test require 10^5 seed cells of the L1210 cell line.
Cytosine Arabinoside must be given every three hours.
Mice were inoculated intraperitoneally on day 0 with a million cells of murine leukemia L1210. Drug was given qd days 1, 4 and 7. Increased life span is the mean increase in the treated group presented as a percentage of the mean life span of control mice.
Mice were inoculated intraperitoneally on day 0 with a million cells of murine leukemia L1210. Drugs were given qd days 1, 3, 5 and 7. Increased life span is presented as a percentage of the mean life span of control mice.

L1210 cells [4] = experiment: Bioassay of viable L1210 cells in brain after intracranial inoculation and ip drug; format: in vivo, mouse; conditions: for intracranial activity: intracranial L1210; for Activity against I.C. L1210 cells, Cell Kill: ip dosage: Compound 18 22 mg/kg, Compound 19 173 mg/kg, Compound 20 62 mg/kg; for crossing of blood brain barrier / CNS penetration (words): mouse, in vivo; for Residual cells (% of control brain): 24 hr after single ip dose (mg/kg): Methotrexate 12, Adriamycin 3, 6-Mercaptopurine 160, Cytosine Arabinoside 1200, Cyclophosphamide 140, Compound 19 173, Tiazofurin 1200, BCNU 20
Source text: BDF1 mice were inoculated intracranially on day 0 with 1×10^5 L1210 cells. […] 24 hr after drug delivery the brains were collected, homogenized, and injected ip into untreated mice. Each mouse received the equivalent of half a brain. Thereafter, life span was monitored and, using inoculum-response data as a base of comparison, estimates were made of the numbers of viable cells in treated and control brains.

[5] = tested on: L1210/6MP, 6TG, 6TGR cells; experiment: Life span of mice inoculated with L1210 resistant to 6MP, 6TG, 6TGR; format: in vivo, mouse; conditions: for activity against drug resistant cells (words): mouse, in vivo
[6] = tested on: drug resistant cell lines; experiment: Generation of drug resistant cell lines
L1210 cells [7] = experiment: L1210 cells surviving treatment (% of original inoculum); format: in vivo, mouse; conditions: single QD day 1 ip
Source text: as §1
as §2, with “line. However for the purposes of tests with the L1210 cell line in testing the compounds of the invention for antitumor activity, a log greater, i.e. 10^6 cells were utilized.” for “line.”
Tables 2-a and 2-b illustrate a dose response for Compound 19 against L1210 inoculated mice expressed as both increased life span compared to control and as the number of cells of the original inoculum surviving drug treatment. As is evident from the various regimens of drug treatment shown in Tables 2-a and 2-b, effective therapeutic effects are noted and a dose response to Compound 19 is evident. […] Cytosine Arabinoside must be given every three hours. Test results are given utilizing standard protocols based on mean survival time and are expressed as T/C percentages (treated animals/control animals).

[8] = tested on: Human Colon Adenocarcinoma CX-1; conditions: data from Goldin et al 1981; activity indicated at ≤20; cited from earlier work
[9] = tested on: drug resistant cell lines; conditions: background knowledge; cited from earlier work
adenocarcinoma = conditions: background; cited from earlier work

`NSc1ncnc2c1ncn2[C@@H]1O[C@H](CO)[C@@H](O)[C@H]1O` [Compound 6, 9-β-D-Ribofuranosyl-9H-purine-6-sulfenamide] gave a Max. sol. dosage [1] of 480 mg/kg and an MTD ([2]; ip) of 480 mg/kg.

For `NSc1nc(N)nc2c1ncn2[C@@H]1O[C@H](CO)[C@@H](O)[C@H]1O` [Compound 18, 2-amino-9-β-D-ribofuranosyl-9H-purine-6-sulfenamide], the “oral activity (words)” value (L1210 cells [3]) was “Oral activity is seen”, the “Activity against I.P. L1210 cells, T/C” value (L1210 cells [3]; oral 8 mg/kg, qd day 1) was 147.0% and the “Activity against I.P. L1210 cells, T/C” value (L1210 cells [3]; oral 13 mg/kg, qd day 1) was 147.0%. The “Activity against I.P. L1210 cells, T/C” value (L1210 cells [3]; oral 22 mg/kg, qd day 1) was 153.0%, the “% ILS” value (L1210 cells [3]; single agent day 1, Compound 19 173 mg/kg, Compound 18 22 mg/kg (Table 12)) was 51% and the “intracranial activity” value (L1210 cells [4]) was “active intracranially”. The “Activity against I.C. L1210 cells, Cell Kill” value (L1210 cells [4]) was 57.3 x, the “crossing of blood brain barrier / CNS penetration (words)” value (L1210 cells [4]) was “effectively cross the blood brain barrier” and the “Activity against I.P. L1210 cells resistant to 6MP, 6TG, 6TGR, T/C” value ([5]; 22 mg/kg, qd day 1) was 93.8%. The “activity against drug resistant cells (words)” value [5] was “shows no activity”, the Max. sol. dosage [1] was 22 mg/kg and the MTD ([2]; ip) was 22 mg/kg. The “generation of drug resistant cell lines (words)” value [6] was “does generate drug resistant cell lines; also recorded: generates drug resistant cells”.

With `Nc1nc([S+](N)[O-])c2ncn([C@@H]3O[C@@H]4COP(=O)(O)O[C@H]4[C@H]3O)c2n1` (stereo partly drawn) [Compound 30, 2-Amino-9-β-D-ribofuranosylpurine-6-sulfinamide 3',5'-cyclic phosphate] the “% ILS” value (L1210 cells [3]; single QD day 1 ip) was 59%, the “Cells surviving treatment (% of day 0 innoc.)” value (L1210 cells [7]) was 1.7% and the Max. sol. dosage ([1]; in water) was 288 mg/kg. For the same compound, the MTD [2] was 288 mg/kg.

For `NSc1nc(N)nc2c1ncn2[C@@H]1O[C@@H]2COP(=O)(O)O[C@H]2[C@H]1O` [Compound 29, 2-Amino-9-β-D-ribofuranosylpurine-6-sulfenamide 3',5'-cyclic phosphate], the “% ILS” value (L1210 cells [3]; single QD day 1 ip) was 59%, the “Cells surviving treatment (% of day 0 innoc.)” value (L1210 cells [7]) was 1.7% and the Max. sol. dosage ([1]; in water) was 480 mg/kg. It also gave an MTD [2] of 480 mg/kg.

In the case of `NSc1nc(N)nc2c1ncn2[C@H]1C[C@H](O)[C@@H](CO)O1` [Compound 22, 2-Amino-9-(2-deoxy-β-D-erythro-pentofuranosyl)-9H-purine-6-sulfenamide], the Max. sol. dosage [1] is reported as 173 mg/kg and the MTD ([2]; ip) is reported as 173 mg/kg.

Work on `NS(=O)(=O)c1ncnc2c1ncn2[C@@H]1O[C@H](CO)[C@@H](O)[C@H]1O` [Compound 8, 9-β-D-Ribofuranosyl-9H-purine-6-sulfonamide] yielded a Max. sol. dosage [1] of 480 mg/kg and an MTD ([2]; ip) of 173 mg/kg.

For `Sc1ncnc2nc[nH]c12` [6-Mercaptopurine], the “Residual cells (% of control brain)” value (L1210 cells [4]) is listed as 37%, the “Activity rating δT/δC” value [8] is listed as 99 and the “inducement of drug resistant cell lines” value [9] is listed as “inducement of drug resistant cell line occurs”. For the same compound, the “activity against adenocarcinoma” value (adenocarcinoma) was “highly active against adenocarcinoma”.

For `Nc1nc([S+](N)[O-])c2ncn([C@H]3C[C@H](O)[C@@H](CO)O3)c2n1` (stereo partly drawn) [Compound 23, 2-amino-9-(2-deoxy-β-D-erythro-pentofuranosyl)-9H-purine-6-sulfinamide], the “in vivo antitumor activity” value (L1210 cells [3]; mouse, in vivo) was “good activity”, the Max. sol. dosage [1] was 480 mg/kg and the “water solubility” value [1] was “increased water solubility”. For the same compound, the MTD ([2]; ip) was 173 mg/kg.

Work on `NSc1ncnc2c1ncn2[C@H]1C[C@H](O)[C@@H](CO)O1` [Compound 14, 9-(2-Deoxy-β-D-erythro-pentofuranosyl)-9H-purine-6-sulfenamide] yielded a Max. sol. dosage [1] of 800 mg/kg and an MTD ([2]; ip) of 288 mg/kg.

In the case of `Nc1ccn([C@@H]2O[C@H](CO)[C@@H](O)[C@@H]2O)c(=O)n1` [Cytosine Arabinoside], the “Residual cells (% of control brain)” value (L1210 cells [4]) is given as 15%, the “Activity rating δT/δC” value [8] is given as 73 and the “inducement of drug resistant cell lines” value [9] is given as “inducement of drug resistant cell line occurs”.

In the case of `NS(=O)(=O)c1ncnc2c1ncn2[C@H]1C[C@H](O)[C@@H](CO)O1` [Compound 16, 9-(2-Deoxy-β-D-erythro-pentofuranosYl)-9H-purine-6-sulfonamide], the Max. sol. dosage [1] is reported as 800 mg/kg and the MTD ([2]; ip) is reported as 173 mg/kg.

`Nc1nc(S(N)(=O)=O)c2ncn([C@H]3C[C@H](O)[C@@H](CO)O3)c2n1` [Compound 24, 2-Amino-9-(2-deoxy-β-D-erythro-pentofuranosyl)-9H-purine-6-sulfonamide] gave a Max. sol. dosage [1] of 480 mg/kg and an MTD ([2]; ip) of 288 mg/kg.

For `Nc1nc(S(N)(=O)=O)c2ncn([C@@H]3O[C@H](CO)[C@@H](O)[C@H]3O)c2n1` [Compound 20, 2-amino-9-β-D-ribofuranosyl-9H-purine-6-sulfonamide], the “oral activity (words)” value (L1210 cells [3]) was “not present”, the “Activity against I.P. L1210 cells, T/C” value (L1210 cells [3]; oral 22 mg/kg, bid days 1,4,7) was 103.3% and the “Activity against I.P. L1210 cells, T/C” value (L1210 cells [3]; oral 37 mg/kg, bid days 1,4,7) was 103.3%. The “Activity against I.P. L1210 cells, T/C” value (L1210 cells [3]; oral 62 mg/kg, bid days 1,4,7) was 103.3%, the “oral activity (words)” value (L1210 cells [3]; listed as 6-sulfonamide analog) was “lack of oral activity” and the “intracranial activity” value (L1210 cells [4]) was “no intracranial activity is seen”. For the same compound, the “Activity against I.C. L1210 cells, Cell Kill” value (L1210 cells [4]) was 0.0 x, the “crossing of blood brain barrier / CNS penetration (words)” value (L1210 cells [4]) was “lack of oral activity and CNS penetration” and the “Activity against I.P. L1210 cells resistant to 6MP, 6TG, 6TGR, T/C” value ([5]; 22 mg/kg, bid days 1,4,7) was 106.7%. For the same compound, the “Activity against I.P. L1210 cells resistant to 6MP, 6TG, 6TGR, T/C” value ([5]; 37 mg/kg, bid days 1,4,7) was 130.0%, the “Activity against I.P. L1210 cells resistant to 6MP, 6TG, 6TGR, T/C” value ([5]; 62 mg/kg, bid days 1,4,7) was 163.3% and the “activity against drug resistant cells (words)” value [5] was “active”. The Max. sol. dosage [1] was 62 mg/kg and the MTD ([2]; ip) was 62 mg/kg.

With `N[S+]([O-])c1ncnc2c1ncn2[C@H]1C[C@H](O)[C@@H](CO)O1` (stereo partly drawn) [Compound 15, 9-(2-Deoxy-β-D-erythro-pentofuranosyl)-9H-ourine-6-sulfinamide] the “% ILS” value (L1210 cells [3]; single QD day 1 ip) was 33%, the “Cells surviving treatment (% of day 0 innoc.)” value (L1210 cells [7]) was 16% and the Max. sol. dosage [1] was 800 mg/kg. The MTD ([2]; ip) was 104 mg/kg.

`NSc1nc(N)nc2c1ccn2[C@H]1C[C@H](O)[C@@H](CO)O1` [Compound 38, 2-Amino-7-(2-deoxy-β-D-erythro-pentofuranosyl)pyrrolo[2,3-d]pyrimidine-4-sulfenamide] showed a Max. sol. dosage [1] of 173 mg/kg and an MTD ([2]; ip) of 173 mg/kg.
